# Laboratory results reported in paper PMC6956158, “In Vitro and In Vivo Assessment of Metabolic Drug Interaction Potential of Dutasteride with Ketoconazole” (Pharmaceutics, 2019).
# Experiments:
# [1] = In vivo pharmacokinetic study in rats, intravenous DUT without or with intravenous KET; parameters: species or system rat; details: male, Sprague-Dawley, rat, plasma, iv, 2.5 mg/kg, n = 4
# Excerpt: (§1) The animal experiment protocols used in the present study were approved by the Pusan National University-Institutional Animal Care and Use Committee for scientific care and ethical procedures (Busan, Korea; approval date: 01/05/2018; approval number: PNU-2018-1848). Male Sprague–Dawley rats (8-week-old; approximately 250 g) were purchased from DBL Co., Ltd. (Incheon, Korea). The rats were acclimatized in a clean room of the Laboratory Animal Center of Pusan National University (Busan, Korea) for 1 week. Then, they were fasted for 12 h prior to the pharmacokinetic experiment and then anesthetized by intramuscular injection of Zoletil at a dose of 20 mg/kg. The femoral vein and artery of the rats were cannulated with a polyethylene tube (BD Medical; Franklin Lakes, NJ, USA). At approximately 4–6 h after the surgery for cannulation, an intravenous dose of DUT (2.5 mg/kg) simultaneously with or without intravenous KET (20 mg/kg) or an oral dose of DUT (5 mg/kg) simultaneously with or without intravenous KET (20 mg/kg) was administered to the rats. Drugs were dissolved in a vehicle consisting of dimethyl sulfoxide, ethanol, and polyethylene glycol 400 at a ratio of 10:5:85 (v/v/v). Blood (approximately 200 μL) was collected in heparin pre-treated microcentrifuge tubes via the femoral artery at 0, 1, 5, 15, 30, 60, 120, 180, 240, 360, 480, and 1200 min after the intravenous dose and at 0, 5, 15, 30, 60, 120, 150, 180, 240, 360, 480, and 1200 min after the oral dose. Following centrifugation of the blood samples at 3000× g at 4 °C for 10 min [19], 100 μL aliquots of plasma were stored at −80 °C.
# (§2) The half maximal inhibitory concentration (IC50) of KET for the inhibition of the DUT metabolism was determined by the nonlinear regression analysis (GraphPad Prism ver. 5.01; GraphPad Software Inc., San Diego, CA, USA) based on the following Hill equation: y = Min + Max−Min/1 + (x/IC50)^-P where Max and Min are the initial and final y value, respectively, and the exponent P represents the Hill coefficient. Peak plasma concentration (Cmax) and time to reach Cmax (Tmax) were read directly from the observed data. Non-compartmental analysis was conducted to estimate pharmacokinetic parameters such as total area under plasma concentration versus time curve from time zero to time of last sampling (AUClast), total area under plasma concentration versus time curve from time zero to infinity (AUCinf), total plasma clearance (CL), volume of distribution at steady state (Vss), and terminal half-life (t1/2) using the NCA200 and 201 models of WinNonlin ver. 3.1 (Certara USA Inc., Princeton, NJ, USA).
# [2] = In vivo pharmacokinetic study in rats, oral DUT without or with KET; parameters: species or system rat; details: male, Sprague-Dawley, rat, plasma, po, 5 mg/kg, n = 4
# Excerpt: as §1, with “([…])” for “(20 mg/kg) or an oral dose of DUT (5 mg/kg) simultaneously with or without intravenous KET (20 mg/kg)”
# as §2
# [3] = Stability in rat plasma (QC samples); assay type: in vitro ADME; details: n = 5; for Stability (percent drug remaining), Autosampler: 10 °C for 24 h in the autosampler; for Stability (percent drug remaining), Bench-Top: room temperature for 3 h; for Stability (percent drug remaining), Freeze-Thaw: three freezing and thawing cycles; for Stability (percent drug remaining), Long-Term: −20 °C for 30 days
# Protocol: The bioanalytical method proposed herein for the simultaneous determination of DUT and H-DUT was fully validated on the basis of the US FDA guideline. The selectivity of the method was evaluated by comparing chromatograms of the analytes (DUT, H-DUT, and internal standard) in blank rat plasma, blank rat plasma spiked with the analytes, and rat plasma sample obtained from the in vivo rat pharmacokinetic study. Further, the existence of potential interferences at the acquisition windows of the analytes was checked. The linearity of the method was evaluated by adding increasing amounts of DUT and H-DUT to the blank plasma. To construct calibration curves (n = 5), the peak area ratios of DUT or H-DUT to the internal standard (y-axis) were plotted against the nominal concentration ratios of DUT or H-DUT (10–1000 ng/mL) to the internal standard (400 ng/mL) (x-axis), and then, linear regression analysis was performed. The sensitivity was assessed by estimating the LLOQ (signal-to-noise [S/N] ratio > 5). The peaks of the analytes at the LLOQ should be discrete, identifiable, and reproducible with acceptable precision (<20%) and accuracy (within 80–120%). The extraction recovery, matrix effect, dilution integrity, and stability (under bench-top, freeze–thaw, post-preparative, and long-term conditions) in addition to the intra-assay (five different samples) and inter-assay (five different runs) precision and accuracy for each analyte were determined at the LLOQ and three different QC levels as described in the US FDA guidelines and in previous studies.
# DUT metabolism in RLM = experiment: Inhibition of DUT metabolism by KET in RLM; assay type: in vitro ADME, rat; details: RLM 1 mg/mL, DUT 5 μM, 90 min
# Protocol: (§3) To investigate the metabolic interaction potential between DUT and KET, the disappearance of DUT (5 μM) in RLM and HLM was determined under the absence and presence of KET at various concentrations ranging from 1 to 5000 nM. A microsomal reaction mixture was prepared as follows (total volume: 0.2 mL): 1 mM NADPH, 10 mM MgCl2, substrate (DUT), and inhibitor (KET), RLM or HLM (1 mg/mL), and 50 mM phosphate buffer. […] The unbound fractions of DUT in rat plasma, RLM, human plasma, and HLM were measured using a rapid equilibrium dialysis (RED) device (Thermo Fisher Scientific, Inc., Waltham, MA, USA) as described in a previous study. […] The fraction unbound was calculated as the ratio of the drug concentrations in the “buffer” chamber to those in the “sample” chamber. The blood-to-plasma concentration ratio (RB) of DUT was determined as described previously. […] The concentrations of DUT in the plasma sample were determined by the validated HPLC analysis.
# (§4) The half maximal inhibitory concentration (IC50) of KET for the inhibition of the DUT metabolism was determined by the nonlinear regression analysis (GraphPad Prism ver. 5.01; GraphPad Software Inc., San Diego, CA, USA) based on the following Hill equation: y = Min + Max−Min/1 + (x/IC50)^-P where Max and Min are the initial and final y value, respectively, and the exponent P represents the Hill coefficient. […]
# DUT metabolism in HLM = experiment: Inhibition of DUT metabolism by KET in HLM; assay type: in vitro ADME, human
# Protocol: as §3, §4
# [4] = parameters: method as in ref 12 (supplement); details: ref 12 (supplement); cited from earlier work
# [5] = parameters: method as in ref 13 (supplement); details: ref 13 (supplement); cited from earlier work
# [6] = intravenous DUT 2.5 mg/kg with intravenous KET 20 mg/kg
# [7] = intravenous DUT 2.5 mg/kg, DUT alone
# [8] = oral DUT 5 mg/kg with oral KET (20 mg/kg)
structure (smiles),measurement,setting,value
"C[C@]12C=CC(=O)N[C@@H]1[C@H](O)C[C@@H]1[C@@H]2CC[C@]2(C)[C@@H](C(=O)Nc3cc(C(F)(F)F)ccc3C(F)(F)F)CC[C@@H]12 [H-DUT, 6β-hydroxydutasteride]",AUC(0-t),[1]; [6],1070 ng·h/mL
same,Cmax,[1]; [6],116 ± 4 ng/mL
same,AUC(0-t),[1]; [7],2130 ng·h/mL
same,Cmax,[1]; [7],141 ± 17 ng/mL
same,AUC(0-t),[2]; [8],630 ng·h/mL
same,Cmax,[2]; [8],62.8 ± 12.3 ng/mL
same,AUC(0-t),"[2]; oral DUT 5 mg/kg, DUT alone",1590 ng·h/mL
same,Cmax,"[2]; oral DUT 5 mg/kg, DUT alone",103 ± 20 ng/mL
same,"Stability (percent drug remaining), Autosampler",[3]; HQC 750 ng/mL,104 ± 1%
same,"Stability (percent drug remaining), Bench-Top",[3]; HQC 750 ng/mL,101 ± 0%
same,"Stability (percent drug remaining), Freeze-Thaw",[3]; HQC 750 ng/mL,101 ± 1%
same,"Stability (percent drug remaining), Long-Term",[3]; HQC 750 ng/mL,106 ± 1%
same,"Stability (percent drug remaining), Autosampler",[3]; LLOQ 10 ng/mL,103 ± 4%
same,"Stability (percent drug remaining), Bench-Top",[3]; LLOQ 10 ng/mL,102 ± 4%
same,"Stability (percent drug remaining), Freeze-Thaw",[3]; LLOQ 10 ng/mL,101 ± 7%
same,"Stability (percent drug remaining), Long-Term",[3]; LLOQ 10 ng/mL,96.1 ± 4.7%
same,"Stability (percent drug remaining), Autosampler",[3]; LQC 30 ng/mL,97.1 ± 0.8%
same,"Stability (percent drug remaining), Bench-Top",[3]; LQC 30 ng/mL,104 ± 9%
same,"Stability (percent drug remaining), Freeze-Thaw",[3]; LQC 30 ng/mL,99.0 ± 2.3%
same,"Stability (percent drug remaining), Long-Term",[3]; LQC 30 ng/mL,95.1 ± 3.7%
same,"Stability (percent drug remaining), Autosampler",[3]; MQC 150 ng/mL,103 ± 4%
same,"Stability (percent drug remaining), Bench-Top",[3]; MQC 150 ng/mL,99.0 ± 1.4%
same,"Stability (percent drug remaining), Freeze-Thaw",[3]; MQC 150 ng/mL,103 ± 3%
same,"Stability (percent drug remaining), Long-Term",[3]; MQC 150 ng/mL,98.7 ± 1.5%
"CC(=O)N1CCN(c2ccc(OCC3COC(Cn4ccnc4)(c4ccc(Cl)cc4Cl)O3)cc2)CC1 (centres unmarked) [KET, ketoconazole]",IC50,DUT metabolism in RLM,77.3 ± 11.1 nM
same,IC50,"DUT metabolism in HLM; HLM 1 mg/mL, DUT 5 μM, 90 min",54.9 ± 15.6 nM
same,Ki,"DUT metabolism in HLM; HLM, fu,mic,KET × IC50 / (S/Km + 1), competitive inhibition assumed, read-out: Ki (unbound inhibition constant)",48.5 nM
same,"fu,mic,KET, unbound fraction in HLM",[4],0.97
same,"Imax,u, maximum unbound plasma concentration",[5],0.0913 µM
